Experimental data published in PubChem BioAssay (NCI).
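Where inhibition never reached the appropriate level, the endpoint shown equals the highest concentration tested. Otherwise, values were interpolated linearly from a five-concentration, 48-hour dose response in 96-well plates. TGI: concentration producing complete growth inhibition.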

Legend:
Assay in all cases: NCI tumour cell line growth inhibition, 48 h
CAKI-1 renal = test system: CAKI-1 renal
HCT-15 colon = test system: HCT-15 colon
ACHN renal = test system: ACHN renal
DMS 114 small cell lung = test system: DMS 114 small cell lung
M14 melanoma = test system: M14 melanoma
KM20L2 colon = test system: KM20L2 colon
A549 NSCLC = test system: A549 NSCLC
NCI-H226 lung = test system: NCI-H226 lung
UACC-62 melanoma = test system: UACC-62 melanoma
SW-620 colon = test system: SW-620 colon
SK-MEL-28 melanoma = test system: SK-MEL-28 melanoma
786-0 renal = test system: 786-0 renal
UO-31 renal = test system: UO-31 renal
K-562 leukemia = test system: K-562 leukemia
M19-MEL melanoma = test system: M19-MEL melanoma
SNB-19 CNS = test system: SNB-19 CNS
OVCAR-4 ovarian = test system: OVCAR-4 ovarian
SN12C renal = test system: SN12C renal
HOP-18 NSCLC = test system: HOP-18 NSCLC
HCC-2998 colon = test system: HCC-2998 colon
CCRF-CEM leukemia = test system: CCRF-CEM leukemia
HCT-116 colon = test system: HCT-116 colon
SF-268 CNS = test system: SF-268 CNS
SF-295 CNS = test system: SF-295 CNS
HL-60(TB) leukemia = test system: HL-60(TB) leukemia
SNB-75 CNS = test system: SNB-75 CNS
SF-539 CNS = test system: SF-539 CNS
OVCAR-8 ovarian = test system: OVCAR-8 ovarian
DLD-1 colon = test system: DLD-1 colon
SK-MEL-5 melanoma = test system: SK-MEL-5 melanoma
RXF 393 renal = test system: RXF 393 renal
OVCAR-5 ovarian = test system: OVCAR-5 ovarian
LXFL 529 NSCLC = test system: LXFL 529 NSCLC
NCI-H460 lung = test system: NCI-H460 lung
MALME-3M melanoma = test system: MALME-3M melanoma
SNB-78 CNS = test system: SNB-78 CNS
RPMI-8226 leukemia = test system: RPMI-8226 leukemia
MOLT-4 leukemia = test system: MOLT-4 leukemia
EKVX NSCLC = test system: EKVX NSCLC
COLO 205 colon = test system: COLO 205 colon
IGROV1 ovarian = test system: IGROV1 ovarian
HOP-62 NSCLC = test system: HOP-62 NSCLC
UACC-257 melanoma = test system: UACC-257 melanoma
DMS 273 small cell lung = test system: DMS 273 small cell lung
OVCAR-3 ovarian = test system: OVCAR-3 ovarian
NCI-H23 lung = test system: NCI-H23 lung
SR leukemia = test system: SR leukemia
SK-MEL-2 melanoma = test system: SK-MEL-2 melanoma
KM12 colon = test system: KM12 colon
RXF-631 renal = test system: RXF-631 renal
HT29 colon = test system: HT29 colon
HOP-92 NSCLC = test system: HOP-92 NSCLC
XF 498 CNS = test system: XF 498 CNS
SK-OV-3 ovarian = test system: SK-OV-3 ovarian
LOX IMVI melanoma = test system: LOX IMVI melanoma
TK-10 renal = test system: TK-10 renal
U251 CNS = test system: U251 CNS
NCI-H522 lung = test system: NCI-H522 lung
A498 renal = test system: A498 renal
NCI/ADR-RES ovarian = test system: NCI/ADR-RES ovarian
SN12K1 renal = test system: SN12K1 renal
P388 leukemia = test system: P388 leukemia
MCF7 breast = test system: MCF7 breast
P388/ADR leukemia = test system: P388/ADR leukemia

Measured: TGI

CN(CCc1ccccn1)/[N+]([O-])=N/O (tested in a mixture with another compound)
not listed: XF 498 CNS | SK-OV-3 ovarian | LOX IMVI melanoma | TK-10 renal | U251 CNS | NCI-H522 lung | A498 renal | NCI/ADR-RES ovarian | SN12K1 renal | P388 leukemia | MCF7 breast | P388/ADR leukemia
> 100 µM: all other assays above

c1ccc(N2CCN(CCCN3CCc4c([nH]c5ccccc45)C3c3cccnc3)CC2)cc1 (centres undefined)
56.2 µM: COLO 205 colon
> 75.4 µM: DMS 273 small cell lung
44.6 µM: XF 498 CNS
99.2 µM: SN12C renal
> 79.9 µM: UACC-257 melanoma
> 77.3 µM: MALME-3M melanoma
> 58.3 µM: HL-60(TB) leukemia
> 65.6 µM: K-562 leukemia
59.8 µM: M14 melanoma
> 71.1 µM: SR leukemia
> 31.6 µM: U251 CNS
98.2 µM: RXF-631 renal
not listed: SF-268 CNS | NCI/ADR-RES ovarian | SN12K1 renal | P388 leukemia | MCF7 breast | P388/ADR leukemia
> 100 µM: all other assays above

CCCCCC1CC=CC(NC(=O)OCc2ccccc2)C1/C=C/CCCC1OCCO1 (centres undefined)
98.7 µM: A498 renal
33.4 µM: HL-60(TB) leukemia
72.2 µM: UO-31 renal
not listed: SR leukemia | NCI/ADR-RES ovarian | SN12K1 renal | P388 leukemia | MCF7 breast | P388/ADR leukemia
> 100 µM: all other assays above

NCCCC(N)(C(=O)O)C(F)F (centres undefined)
> 1580 µM: SN12K1 renal | CCRF-CEM leukemia
> 1090 µM: OVCAR-8 ovarian
> 4800 µM: OVCAR-5 ovarian
> 50 µM: HOP-18 NSCLC
> 1260 µM: EKVX NSCLC
not listed: ACHN renal | M14 melanoma | 786-0 renal | LXFL 529 NSCLC | SR leukemia | RXF-631 renal | XF 498 CNS | TK-10 renal
> 5000 µM: all other assays above
